According to paper PMC8262977, “A Dual-Specificity Inhibitor Targets Polyphosphate Kinase 1 and 2 Enzymes To Attenuate Virulence of Pseudomonas aeruginosa” (mBio, 2021):

Legend:
P. aeruginosa [1] = assay: C. elegans liquid killing (LK) infection assay; type: in vivo, Caenorhabditis elegans; conditions: 100 μM gallein
Description: (§1) Wild-type N2 C. elegans and the glp-4 conditionally sterile mutant strain were obtained from the Caenorhabditis Genetics Center. Liquid killing assays were conducted using glp-4 mutant worms as described previously ([35]), with the exception of survival being scored manually under a Zeiss light microscope instead of via Sytox Orange staining. Nematodes were scored as dead when they no longer moved when tapped. Solid killing was conducted using glp-4 as described previously ([34]), with the indicated concentration of inhibitor impregnated into the SK agar. Bacterial CFU accumulation in WT N2 worms was quantified as described previously ([56]). Briefly, age-synchronized embryos were spotted onto bacterium-seeded nematode growth medium (NGM) agar plates impregnated with inhibitor or DMSO. Embryos were incubated at 25°C for 3 days, after which point adult worms were harvested, washed, lysed, and enumerated for CFU.

P. aeruginosa [2] = assay: C. elegans solid-phase slow killing (SK) infection assay; type: in vivo, Caenorhabditis elegans; conditions: 100 μM gallein
Description: as §1

C. elegans = assay: Toxicity toward C. elegans (OP50 + gallein curves); type: in vivo, Caenorhabditis elegans; conditions: 100 μM
Description: as §1, with “We tested both liquid killing (LK) and solid-phase slow killing (SK) models of infection, as these two assays are reliant upon distinct mechanisms of P. aeruginosa pathogenesis ([34], [35]). […]. Wild-type” for “Wild-type”

HEK293T cells = assay: HEK293T cytotoxicity assay, trypan blue; type: cell-based, human; conditions: concentrations up to 100 μM, 48 h incubation
Description: HEK293 cells were grown in Dulbecco’s modified Eagle’s medium supplemented with 10% fetal bovine serum at 5% CO2 and 37°C. Cells were grown until a confluent monolayer was formed in 12-well culture plates, at which point inhibitors or DMSO was added. After 48-h incubation, cells were detached with trypsin and percent viability was scored via a hemocytometer and trypan blue staining.

P. aeruginosa PPK2B = target: T1, P. aeruginosa PPK2B (Pseudomonas aeruginosa, UniProt Q9I154); assay: PPK2B polyP synthesis from ATP, toluidine blue detection; type: biochemical; conditions: polyP synthesis from ATP; 275 nM enzyme; read-out: IC50 PPK2B
T1 construct: MBP (N, cleaved yes); His tag (N, cleaved yes); made in house; host or cells: E. coli BL21(DE3)
Description: Compounds were synthesized as outlined in Text S1. Compounds were dissolved in DMSO to make 10 mM stocks and added to a 200 μM final concentration for initial screening. The screen for PPK1 inhibitors was conducted by measuring polyP synthesis activity as described previously ([12]), with the exception of the polyP detection method (see Text S1). The reaction mix contained 50 mM HEPES-KOH, pH 7.5, 40 mM (NH4)2SO4, 4 mM MgSO4, 60 mM creatine phosphate, 0.0625 mg/ml creatine kinase (Sigma; from rabbit muscle), 5 mM ATP, and 275 nM PPK1 (added last). One-hundred-microliter reaction mixtures were incubated at 37°C for 30 min, after which time 50-μl aliquots were withdrawn and added to 1,000 μl of 6-mg/liter toluidine blue dissolved in 40 mM acetic acid to quench the reaction and quantify polyP ([27]). The A630/530 nm ratio was then recorded, and the values obtained were corrected by subtracting the corresponding blanks (all ingredients except enzyme). The amount of polyP synthesized was calculated using a standard curve (Fig. S1A). Any compounds showing 50% or greater reduction in activity relative to the DMSO control were subjected to further IC50 analysis.
All IC50 and kinetic assay mixtures contained equimolar amounts (275 nM) of PPK to ensure valid comparison between different enzymes. PolyP synthesis activity (for PPK1 and PPK2B) was assayed using the reaction buffer and conditions described above. ATP concentration was varied as indicated for kinetic experiments. Curves were fit using GraphPad Prism V9.

P. aeruginosa PA14 [3] = assay: Pyoverdine quantification (absorbance at 403 nm); type: cell-based, Pseudomonas aeruginosa
Description: Fifty-milliliter P. aeruginosa cultures in 2.5% (wt/vol) LB (Miller; Bioshop) were grown to stationary phase in 125-ml Erlenmeyer flasks with 180-rpm shaking at 37°C for 18 h. Cultures were centrifuged at 18,000 rpm for 30 min to clarify the supernatant, which was then filter sterilized. Pyoverdine was quantified spectrophotometrically at 403 nm as described previously ([55]). Pyocyanin was extracted via chloroform and treated with HCl to yield a red product that was quantified at 520 nm ([55]). To account for any colorimetric interference by inhibitors, cell-free blank readings were subtracted from each sample.

P. aeruginosa [4] = assay: Bacterial CFU accumulation in the C. elegans gut; type: in vivo, Caenorhabditis elegans
Description: as §1

P. aeruginosa PA14 [5] = assay: Swimming motility assay; type: cell-based, Pseudomonas aeruginosa
Description: Swimming motility plates consisted of 0.3% (wt/vol) Bacto agar (Becton Dickinson) and 2.5% (wt/vol) LB (Miller; Bioshop). Where indicated, 100 μM compound or an equivalent volume of DMSO was added to the agar prior to pouring. Plates were stab inoculated with a pipette tip dipped in overnight LB culture. Plates were incubated in sealed Tupperware at 30°C for 18 h, and swimming diameter was imaged and measured electronically.

[6] = design: method as in PMID 29084601, PMID 24703913, PMID 30024944; conditions: rats, 5 to 10 mg/kg of body weight daily for up to 8 weeks; cited from earlier work
[7] = WT: DMSO control vs 100 µM gallein
[8] = Δppk1, 2a, 2b, 2c: DMSO control vs 100 µM gallein
[9] = Δppk1: DMSO control vs 100 µM gallein
[10] = Δppk2a, 2b, 2c: DMSO control vs 100 µM gallein

T1 sequence (Q9I154 whole entry): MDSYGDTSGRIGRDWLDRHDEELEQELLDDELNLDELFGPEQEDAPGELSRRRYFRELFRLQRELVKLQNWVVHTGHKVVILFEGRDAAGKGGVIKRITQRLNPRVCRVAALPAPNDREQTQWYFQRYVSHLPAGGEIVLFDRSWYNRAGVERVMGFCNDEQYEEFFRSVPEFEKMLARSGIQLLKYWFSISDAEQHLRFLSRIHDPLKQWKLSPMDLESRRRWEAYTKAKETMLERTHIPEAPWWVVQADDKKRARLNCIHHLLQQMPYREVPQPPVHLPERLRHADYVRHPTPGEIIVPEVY

O=C1OC2(c3ccccc31)c1ccc(O)c(O)c1Oc1c2ccc(O)c1O [RT4 (gallein), gallein]
C. elegans survival (P. aeruginosa [1]): significantly improved survival rates
C. elegans survival (P. aeruginosa [2]): significantly improved survival rates
toxicity toward C. elegans (C. elegans): no gallein toxicity toward C. elegans was observed
cytotoxicity (HEK293T cells): noncytotoxic
IC50 (P. aeruginosa PPK2B): 20 ± 2 µM
pyoverdine production (P. aeruginosa PA14 [3]; WT, Δppk1 and Δppk2 strains): reproduced the marked pyoverdine and pyocyanin defects observed in the ΔpolyP strain
Pyoverdine, Mean Diff. (P. aeruginosa PA14 [3]; [7]): 38.33
pyoverdine production (P. aeruginosa PA14 [3]; ΔpolyP strain): no significant decrease of either toxin
Pyoverdine, Mean Diff. (P. aeruginosa PA14 [3]; [8]): -3.233
Pyoverdine, Mean Diff. (P. aeruginosa PA14 [3]; [9]): 17.13
Pyoverdine, Mean Diff. (P. aeruginosa PA14 [3]; [10]): 45.33
bacterial accumulation in the nematode gut (P. aeruginosa [4]; WT strain): reduced bacterial accumulation in the nematode gut
C. elegans accumulation CFU, Mean Diff. (P. aeruginosa [4]; [7]): 783.3
bacterial accumulation in the nematode gut (CFU) (P. aeruginosa [4]; ΔpolyP strain): no additional decrease in CFU
bacterial accumulation in the nematode gut (P. aeruginosa [4]; Δppk1 strain): further reduced bacterial accumulation
C. elegans accumulation CFU, Mean Diff. (P. aeruginosa [4]; ∆polyP: DMSO control vs 100 µM gallein): -33.33
C. elegans accumulation CFU, Mean Diff. (P. aeruginosa [4]; ∆ppk1: DMSO control vs 100 µM gallein): 446.7
flagellum-based swimming motility (P. aeruginosa PA14 [5]; WT, 100 μM in agar): faithfully reproduced in WT P. aeruginosa the defect in flagellum-based swimming motility observed in the ΔpolyP strain
swimming motility, Mean Diff. (P. aeruginosa PA14 [5]; [7]): 2
swimming motility, Mean Diff. (P. aeruginosa PA14 [5]; [8]): -0.1
swimming motility, Mean Diff. (P. aeruginosa PA14 [5]; [9]): 1.05
swimming motility, Mean Diff. (P. aeruginosa PA14 [5]; [10]): 0.65
adverse effects [6]: no adverse effects
